Results from the NIST ThermoML archive (doi:10.1016/j.jct.2018.01.015).
± gives the expanded uncertainty stated by the source.

Experiment: xn = mol fraction of the nth substance listed
Conditions: Gas, rotating-body viscometer for gases

N#N [nitrogen] + O=C=O
Conditions	viscosity [mPa·s]
323.22 K, 200.9 kPa, x1 = 0.4996	0.0177 ± 4.2e-05
323.22 K, 398.6 kPa, x1 = 0.4996	0.01773 ± 4.2e-05
323.22 K, 399.4 kPa, x1 = 0.2479	0.01695 ± 5.5e-05
323.22 K, 598 kPa, x1 = 0.4996	0.01776 ± 4.2e-05
323.22 K, 605 kPa, x1 = 0.2479	0.01698 ± 5.5e-05
323.22 K, 798.9 kPa, x1 = 0.2479	0.01701 ± 5.5e-05
323.22 K, 804.9 kPa, x1 = 0.4996	0.0178 ± 4.2e-05
323.22 K, 996.4 kPa, x1 = 0.4996	0.01783 ± 4.2e-05
323.22 K, 1001.8 kPa, x1 = 0.2479	0.01705 ± 5.5e-05
323.22 K, 1196.8 kPa, x1 = 0.2479	0.0171 ± 5.5e-05
323.22 K, 1198.6 kPa, x1 = 0.4996	0.01787 ± 4.2e-05
323.26 K, 100.6 kPa, x1 = 1	0.0189 ± 3.1e-05
323.26 K, 101.5 kPa, x1 = 1	0.0189 ± 3.1e-05
323.26 K, 200.7 kPa, x1 = 1	0.0189 ± 3.1e-05
323.26 K, 400.4 kPa, x1 = 1	0.01893 ± 3.1e-05
323.26 K, 600.8 kPa, x1 = 1	0.01896 ± 3.1e-05
323.26 K, 800.2 kPa, x1 = 1	0.01896 ± 3.1e-05
323.26 K, 1000.6 kPa, x1 = 1	0.01901 ± 3.1e-05
323.26 K, 1000.9 kPa, x1 = 1	0.01901 ± 3.1e-05
323.27 K, 398.8 kPa, x1 = 1	0.01893 ± 3.1e-05
323.27 K, 1501.9 kPa, x1 = 1	0.01907 ± 3.1e-05
323.27 K, 1802.1 kPa, x1 = 1	0.01913 ± 3.1e-05
373.25 K, 103.3 kPa, x1 = 0.2479	0.01923 ± 5.5e-05
373.25 K, 107.8 kPa, x1 = 0.4996	0.01998 ± 4e-05
373.25 K, 200.1 kPa, x1 = 0.2479	0.01925 ± 5.5e-05
373.25 K, 200.7 kPa, x1 = 0.4996	0.02 ± 4e-05
373.25 K, 391.3 kPa, x1 = 0.4996	0.02002 ± 4e-05
373.25 K, 400.6 kPa, x1 = 0.2479	0.01928 ± 5.5e-05
373.25 K, 598.5 kPa, x1 = 0.4996	0.02005 ± 4e-05
373.25 K, 601.5 kPa, x1 = 0.2479	0.0193 ± 5.5e-05
373.25 K, 799.5 kPa, x1 = 0.4996	0.02008 ± 4e-05
373.25 K, 802.2 kPa, x1 = 0.2479	0.01933 ± 5.5e-05
373.25 K, 998.6 kPa, x1 = 0.4996	0.02011 ± 4e-05
373.25 K, 999.6 kPa, x1 = 0.2479	0.01937 ± 5.5e-05
373.25 K, 1498 kPa, x1 = 0.4996	0.0202 ± 4e-05
373.25 K, 1498.2 kPa, x1 = 0.2479	0.01947 ± 5.5e-05
373.29 K, 100.8 kPa, x1 = 1	0.02102 ± 3.1e-05
373.29 K, 201.1 kPa, x1 = 1	0.02104 ± 3.1e-05
373.29 K, 401 kPa, x1 = 1	0.02106 ± 3.1e-05
373.29 K, 601 kPa, x1 = 1	0.02107 ± 3.1e-05
373.29 K, 1000.3 kPa, x1 = 1	0.02111 ± 3.1e-05
373.29 K, 1500.6 kPa, x1 = 1	0.02118 ± 3.1e-05
373.29 K, 1807.2 kPa, x1 = 1	0.02122 ± 3.1e-05
373.57 K, 108.8 kPa, x1 = 0.7498	0.02061 ± 5.3e-05
373.57 K, 199.2 kPa, x1 = 0.7498	0.02064 ± 5.3e-05
373.57 K, 399.3 kPa, x1 = 0.7498	0.02065 ± 5.3e-05
373.57 K, 598.2 kPa, x1 = 0.7498	0.02068 ± 5.3e-05
373.57 K, 1002.4 kPa, x1 = 0.7498	0.02073 ± 5.3e-05
373.57 K, 1501.2 kPa, x1 = 0.7498	0.02081 ± 5.3e-05
373.57 K, 2041.9 kPa, x1 = 0.7498	0.02091 ± 5.3e-05
423.27 K, 108.9 kPa, x1 = 0.7498	0.02271 ± 5.9e-05
423.27 K, 200.4 kPa, x1 = 0.7498	0.02272 ± 5.9e-05
423.27 K, 398.7 kPa, x1 = 0.7498	0.02274 ± 5.9e-05
423.27 K, 600.7 kPa, x1 = 0.7498	0.02275 ± 5.9e-05
423.27 K, 1000.3 kPa, x1 = 0.7498	0.02281 ± 5.9e-05
423.27 K, 1500.1 kPa, x1 = 0.7498	0.02287 ± 5.9e-05
423.27 K, 2000 kPa, x1 = 0.7498	0.02293 ± 5.9e-05
423.28 K, 107.7 kPa, x1 = 0.2479	0.02144 ± 6.2e-05
423.28 K, 109.4 kPa, x1 = 0.4996	0.02216 ± 4.5e-05
423.28 K, 199.9 kPa, x1 = 0.4996	0.02216 ± 4.5e-05
423.28 K, 400 kPa, x1 = 0.4996	0.02219 ± 4.5e-05
423.28 K, 603 kPa, x1 = 0.4996	0.02221 ± 4.5e-05
423.28 K, 1001.7 kPa, x1 = 0.4996	0.02226 ± 4.5e-05
423.28 K, 1496.5 kPa, x1 = 0.4996	0.02233 ± 4.5e-05
423.28 K, 1995 kPa, x1 = 0.4996	0.02242 ± 4.5e-05
423.29 K, 201.4 kPa, x1 = 0.2479	0.02145 ± 6.2e-05
423.29 K, 405.1 kPa, x1 = 0.2479	0.02148 ± 6.2e-05
423.29 K, 601.1 kPa, x1 = 0.2479	0.02151 ± 6.2e-05
423.29 K, 1000.7 kPa, x1 = 0.2479	0.02156 ± 6.2e-05
423.29 K, 1495.1 kPa, x1 = 0.2479	0.02165 ± 6.2e-05
423.29 K, 1998.5 kPa, x1 = 0.2479	0.02175 ± 6.2e-05
423.33 K, 100.9 kPa, x1 = 1	0.02302 ± 3.4e-05
423.33 K, 200.9 kPa, x1 = 1	0.02303 ± 3.4e-05
423.33 K, 400.7 kPa, x1 = 1	0.02306 ± 3.4e-05
423.33 K, 600.6 kPa, x1 = 1	0.02308 ± 3.4e-05
423.33 K, 1000.5 kPa, x1 = 1	0.02311 ± 3.4e-05
423.33 K, 1500.2 kPa, x1 = 1	0.02316 ± 3.4e-05
423.33 K, 1799.4 kPa, x1 = 1	0.02319 ± 3.4e-05
473.31 K, 108.7 kPa, x1 = 0.7498	0.0247 ± 6.3e-05
473.31 K, 199 kPa, x1 = 0.7498	0.02471 ± 6.3e-05
473.31 K, 399 kPa, x1 = 0.7498	0.02472 ± 6.3e-05
473.31 K, 602.8 kPa, x1 = 0.7498	0.02474 ± 6.3e-05
473.31 K, 1003.8 kPa, x1 = 0.7498	0.02477 ± 6.3e-05
473.31 K, 1501.4 kPa, x1 = 0.7498	0.02482 ± 6.3e-05
473.31 K, 1996.7 kPa, x1 = 0.7498	0.02489 ± 6.3e-05
473.32 K, 108.1 kPa, x1 = 0.4996	0.02422 ± 4.8e-05
473.32 K, 203.7 kPa, x1 = 0.4996	0.02423 ± 4.8e-05
473.32 K, 400.1 kPa, x1 = 0.4996	0.02424 ± 4.8e-05
473.32 K, 602.4 kPa, x1 = 0.4996	0.02427 ± 4.8e-05
473.32 K, 1006.2 kPa, x1 = 0.4996	0.02431 ± 4.8e-05
473.32 K, 1503 kPa, x1 = 0.4996	0.02437 ± 4.8e-05
473.32 K, 1991.9 kPa, x1 = 0.4996	0.02444 ± 4.8e-05
473.34 K, 109.3 kPa, x1 = 0.2479	0.02355 ± 6.6e-05
473.34 K, 203.1 kPa, x1 = 0.2479	0.02356 ± 6.6e-05
473.34 K, 395.8 kPa, x1 = 0.2479	0.02358 ± 6.6e-05
473.34 K, 597.3 kPa, x1 = 0.2479	0.02359 ± 6.6e-05
473.34 K, 1000.4 kPa, x1 = 0.2479	0.02365 ± 6.6e-05
473.34 K, 1495.4 kPa, x1 = 0.2479	0.02373 ± 6.6e-05
473.34 K, 1998.5 kPa, x1 = 0.2479	0.02382 ± 6.6e-05
473.38 K, 100.7 kPa, x1 = 1	0.02494 ± 3.6e-05
473.38 K, 200.8 kPa, x1 = 1	0.02495 ± 3.6e-05
473.38 K, 398.5 kPa, x1 = 1	0.02496 ± 3.6e-05
473.38 K, 600.9 kPa, x1 = 1	0.02497 ± 3.6e-05
473.38 K, 1000.7 kPa, x1 = 1	0.02499 ± 3.6e-05
473.38 K, 1500.6 kPa, x1 = 1	0.02503 ± 3.6e-05
473.38 K, 1799.3 kPa, x1 = 1	0.02505 ± 3.6e-05
